One may read the IC50 as the concentration that gives 50% inhibition.

IC50 data for two compounds are collected here from paper PMC7806935, “Exosite inhibition of ADAMTS-5 by a glycoconjugated arylsulfonamide” (Scientific Reports, 2021).

In this test the target is T1, ADAMTS-4 (Homo sapiens, UniProt O75173).
T1 construct: made in house
T1 sequence (O75173 213-837): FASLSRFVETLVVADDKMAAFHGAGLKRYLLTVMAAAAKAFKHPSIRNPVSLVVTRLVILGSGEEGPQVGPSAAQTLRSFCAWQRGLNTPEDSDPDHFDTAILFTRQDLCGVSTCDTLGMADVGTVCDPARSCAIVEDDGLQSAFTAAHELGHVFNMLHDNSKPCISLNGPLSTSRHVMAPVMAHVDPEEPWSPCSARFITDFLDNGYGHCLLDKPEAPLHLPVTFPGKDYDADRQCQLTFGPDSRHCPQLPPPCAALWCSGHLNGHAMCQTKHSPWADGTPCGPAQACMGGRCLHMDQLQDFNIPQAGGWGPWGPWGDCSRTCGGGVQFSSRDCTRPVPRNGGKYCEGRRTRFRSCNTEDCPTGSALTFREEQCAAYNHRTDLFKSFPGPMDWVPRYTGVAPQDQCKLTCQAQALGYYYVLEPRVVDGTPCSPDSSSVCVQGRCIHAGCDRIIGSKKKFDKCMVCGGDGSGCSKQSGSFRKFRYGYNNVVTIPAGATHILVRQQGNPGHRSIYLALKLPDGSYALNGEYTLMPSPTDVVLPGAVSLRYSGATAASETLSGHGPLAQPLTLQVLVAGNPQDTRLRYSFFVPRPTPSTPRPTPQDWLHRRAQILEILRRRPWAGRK
Briefly: Versican digestion assay (V1-5GAG, sandwich ELISA), ADAMTS-4. It is filed as biochemical. As to conditions: protein substrate V1-5GAG; mean ± SEM (n = 3); read-out: IC50 (μM) V1-5GAG ATS4. Here is the method: All enzyme assays were conducted in TNC-B buffer (50 mM Tris–HCl, pH 7.5, 150 mM NaCl, 10 mM CaCl2, and 0.02% NaN3) at 37 °C. To avoid the formation of inhibitor aggregates, the detergent Brij-35 (0.05%) was added to the assay buffer. No aggregation was visually observed at concentrations up to 2 mM. The inhibitor stock solutions in DMSO (10 mM) were diluted at different concentrations in assay buffer and incubated with ADAMTS-4 or ADAMTS-5 for 2 h at 37 °C. Percent of inhibition was calculated from control reactions containing only DMSO. IC50 values were determined using the formula: vi/v0 = 1/(1 + [I]/IC50) where vi is the initial velocity of substrate cleavage in the presence of the inhibitor at concentration [I] and v0 is the initial velocity in the presence of an equal concentration (v/v) of DMSO.
ADAMTS-5 full-length (FL) (final concentration 0.4 nM), ADAMTS-5 MDTCS (0.4 nM) ADAMTS-5 MD (26 nM) or ADAMTS-4 (5.5 nM) were incubated with different concentrations of inhibitors or DMSO for 2 h at 37 °C in TNC-B buffer before addition of V1-5GAG (50 nM). At different time points (0–20 min), sub-samples were removed and reactions were stopped with EDTA. Maxisorp plates (VWR, Lutterworth, UK) were coated with 5 μg/mL anti-DPEEAE neoepitope antibody (Cat n. PA1-1748A, Life Technologies, Paisley, UK) in carbonate buffer pH 9.6 (16 h, 4 °C). This neoepitope antibody specifically recognizes the N-terminal versican fragment versikine, generated when ADAMTS-5 cleaves versican at the Glu441↓442Ala bond. Washing steps were performed in triplicate with 300 μL phosphate buffered-saline (PBS) containing 0.1% Tween-20 between each step. Plates were blocked with 3% bovine serum albumin (BSA)/PBS for 2 h, at RT. The samples from the digestion experiments were diluted in 3% BSA/PBS and added to the plate (100 μL, 2 h, RT). Bound versikine fragments were detected using anti-G1 monoclonal antibody (Cat n. ab171887, Abcam, Cambridge, UK) (3 μg/mL in 0.5% BSA/PBS, 1.5 h, RT), followed by horseradish peroxidase (HRP)-conjugated anti-mouse antibodies (Cat. N. P044701-2, Agilent Technologies LTD, Cheadle, UK) (2.4 μg/mL, 1 h, RT). The assay was developed by addition of o-phenylenediamine dihydrochloride (OPD, Cat n. 34006, Sigma Aldrich, Gillingham, UK) for 10 min and reactions were stopped with 2 M H2SO4. The absorbance was measured at 492 nm using a BioTeK Epoch (BioTek, Swindon, UK) plate reader. For each dilution, the amount of neoepitope generated was derived from a standard curve (0–1.56 nM) of V1-5GAG completely digested with ADAMTS-5. Initial velocities were calculated from the concentration of versikine generated as a function of reaction time and IC50 values were determined.
For inhibition studies, initial rates of proteolysis (< 20% cleavage) were analyzed between 0 and 20 min. For determination of the specificity constants (kcat/Km), digestion reactions were allowed to occur to completion (0–2 h). Data were analyzed as previously described.
Background: ELISA stands for enzyme-linked immunosorbent assay.

SMILES strings stand for the structures.

As for `CCC(C)N(Cc1cn(CCCOC2OC(CO)C(O)C(O)C2NC(C)=O)nn1)S(=O)(=O)c1ccc(-c2ccccc2)cc1` (mixture of isomers) [Compound 4b], the IC50 is above 100 µM.

Regarding `CCC(C)N(Cc1cn(CCCOC(=O)c2ccccc2)nn1)S(=O)(=O)c1ccc(-c2ccccc2)cc1` (racemic) [Compound 6], the IC50 was above 100 µM.
